Columns and labels:
[1] = target: T1, TRPV3 I644W (Mus musculus, UniProt Q8K424, I644W); test: Whole-cell recording of TRPV3 mutant I644W in HEK 293T cells; assay type: cell-based; conditions: 2-APB (1 mM)-evoked, –60 mV, read-out: IC50 for inhibition of TRPV3 mutant
T1 construct: expressed in transfected cells; host or cells: HEK 293T
Source text: (§1) The WT mouse TRPV3 (mTRPV3), human TRPV3 (hTRPV3), rat TRPV1, rat TRPV2, rat TRPM8, and mouse TRPA1 cDNAs were generously provided by Dr. Feng Qin (State University of New York at Buffalo, Buffalo, USA). The GFP-mTRPV3 WT and the mutants (mTRPV3-G573S and mTRPV3-G573C) in pcDNA4/TO vector were gifts from Dr. Michael X Zhu (The University of Texas Health Science Center at Houston, Houston, USA). The WT fTRPV3 was kindly provided by Dr. Makoto Tominaga (Department of Physiological Sciences, SOKENDAI, Okazaki, Japan). All mutations were made using the overlap-extension polymerase chain reaction method as previously described ([Tian et al., 2019]). The resulting mutations were then verified by DNA sequencing. […]
(§2) Conventional whole-cell and excised patch-clamp recording methods were used. […] For a subset of recordings, currents were amplified using an Axopatch 200B amplifier (Molecular Devices, Sunnyvale, CA) and recorded through a BNC-2090/MIO acquisition system (National Instruments, Austin, TX) using QStudio developed by Dr. Feng Qin at State University of New York at Buffalo. […] As determined by the conductance tests, the solution around a patch under study was fully controlled by the application of a flow rate of 100 μl/min or greater. […]

[2] = target: T2, TRPV3 L630W (Mus musculus, UniProt Q8K424, L630W); test: Whole-cell recording of TRPV3 mutant L630W in HEK 293T cells; assay type: cell-based; conditions: 2-APB (1 mM)-evoked, –60 mV, read-out: IC50 for inhibition of TRPV3 mutant
T2 construct: expressed in transfected cells; host or cells: HEK 293T
T2 sequence (Q8K424 whole entry L630W): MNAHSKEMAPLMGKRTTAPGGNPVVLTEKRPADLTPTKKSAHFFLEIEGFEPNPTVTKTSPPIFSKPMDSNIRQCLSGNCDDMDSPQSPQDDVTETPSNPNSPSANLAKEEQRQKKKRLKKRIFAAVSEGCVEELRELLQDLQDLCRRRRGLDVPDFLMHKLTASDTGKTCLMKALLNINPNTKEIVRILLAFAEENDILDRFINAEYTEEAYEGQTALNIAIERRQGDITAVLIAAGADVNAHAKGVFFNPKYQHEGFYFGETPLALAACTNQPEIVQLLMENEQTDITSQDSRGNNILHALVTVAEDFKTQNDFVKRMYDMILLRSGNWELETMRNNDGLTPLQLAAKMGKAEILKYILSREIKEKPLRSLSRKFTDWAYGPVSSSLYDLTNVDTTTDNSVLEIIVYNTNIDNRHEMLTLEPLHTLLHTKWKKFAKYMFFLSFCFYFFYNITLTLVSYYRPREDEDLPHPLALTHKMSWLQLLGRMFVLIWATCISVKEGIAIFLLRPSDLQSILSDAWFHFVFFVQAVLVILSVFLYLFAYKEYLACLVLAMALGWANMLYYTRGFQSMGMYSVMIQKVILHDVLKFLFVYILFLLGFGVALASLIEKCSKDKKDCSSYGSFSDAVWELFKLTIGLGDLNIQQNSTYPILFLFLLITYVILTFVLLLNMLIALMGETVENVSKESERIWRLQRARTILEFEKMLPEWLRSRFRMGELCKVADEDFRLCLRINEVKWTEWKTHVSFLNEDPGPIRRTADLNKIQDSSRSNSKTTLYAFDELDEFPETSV
Source text: as §1, §2

T1 sequence (Q8K424 whole entry I644W): as the sequence (Q8K424 whole entry L630W) above, with W630L, I644W counted along it

## CCCCOc1ccc(C(=O)CCN2CCCCC2)cc1 [dyclonine]
[1]
  IC50: 26.1 ± 2.8 µM
[2]
  IC50: 30.8 ± 2.2 µM

From article PMC8112869, “Therapeutic inhibition of keratinocyte TRPV3 sensory channel by local anesthetic dyclonine” (eLife, 2021)
